Here are results for 2 compounds from PMC4233664, “Synergistic Effects of Clopidogrel and Fufang Danshen Dripping Pills by Modulation of the Metabolism Target and Pharmacokinetics” (Evidence-based Complementary and Alternative Medicine : eCAM, 2014).

A short description of data set [1]: Pharmacokinetic study of CPGS in rat plasma after oral clopidogrel alone or with FDDP. Format: in vivo, SD rats. Here is the method:
Analyses were performed using the Agilent HPLC 1100 system (Agilent, USA) consisting of a quat pump (G1311A), an autosampler (G1313A), and an online degasser (G1322A). The chromatographic separation was performed on an Agilent Zorbax SB C18 column (4.6 mm × 250 mm, 5 μm). A simple gradient method was used, in which the percentage of acetonitrile-buffer (0.2% phosphoric acid in water) was varied as shown in Table 1 at a flow rate of 1.0 mL/min. The injection volume was 10 μL. The total LC run time was 12 min with the column temperature kept at 30°C and the detection at a wavelength of 220 nm.
An aliquot of 10 μL 1 M hydrochloric acid (HCL), 100 μL blood plasma, and 10 μL of IS (160 μg/mL) was added into a 1.5 mL centrifuge tube. After vortex-mixing for 1 min, 1 mL of extraction solvent (ethyl acetate-dichloromethane; 4 : 1, V/V) was added and vortexed vigorously for 4 min, followed by centrifugation for 12 min at 12000 rpm. Next, 950 μL of supernatant was transferred into another tube and evaporated to dryness at 40°C for 90 min under a gentle stream of nitrogen. The residue was reconstituted with 100 μL of the mobile phase and vortexed for 1 min and then centrifuged for 5 min at 12000 rpm. For analysis, 10 μL of the supernatant was injected onto the HPLC system. The plasma concentrations of the analytes exceeded the upper limit of quantification, and therefore the sample was diluted with blank plasma and vortexed for 1 min. A 100 μL aliquot of diluted sample was processed under the same sample pretreatment procedure as mentioned above.
The preclinical pharmacokinetic study was based on 16 SD rats. The investigation was approved by the Animal Ethics Committee of the Nanjing University of Traditional Chinese Medicine. Two groups of 8 rats each were used according to a parallel study. The clopidogrel-only group received 30 mg/kg oral administration of clopidogrel. The combination group (clopidogrel 30 mg/kg + FDDP 324 mg/kg) received their dose administered as a combination. The rats fasted for 12 h prior to the experiment, while free access to water remained. Plasma samples were collected at 0, 0.25, 0.5, 1, 1.5, 2.3, 4, 6, 8, 10, 12, and 24 h after dosing. Blood samples of 400 μL were obtained via an in-dwelling catheter in the caudal vein and collected into heparinized tubes. Then, the plasma was centrifuged for 10 min at 4000 rpm and the supernatant was transferred to labelled plastic vials at −80°C until the completion of the analysis.
Pharmacokinetic parameters were calculated using Drug and Statistic (DAS) 3.0 pharmacokinetic software (Chinese Pharmacological Association, Anhui, China). The pharmacokinetic parameters included the compartment parameters and statistical parameters (Table 6).
The area under the plasma concentration-time curve (AUC) was calculated using the linear trapezoidal rule. The elimination rate constant (kel) was calculated by linear regression of the terminal points of the semilog plot of the plasma concentration against time. The half-life of drug elimination during the terminal phase (t 1/2) was calculated from the formula t 1/2 = 0.693/kel. Mean residence time (MRT) was calculated as AUMC/AUC, where AUMC is the area under the first moment of the plasma concentration-time curve. The volume of distribution (Vd) of the central compartment was calculated as dose/C 0, where C 0 is the concentration measured just after the administration. Plasma clearance (CL) was calculated as dose/AUC.

Data set [2] in a line: Stability of CPGS in plasma samples (HPLC method validation). It is filed as physicochemical, rat. Here is the method:
Stability experiments were performed to evaluate the analyte stability in stock solutions and in plasma samples under different conditions. Room temperature stability, refrigerated stability of extracted sample, freeze-thaw stability, and long-term stability were performed using three replicates at each QC level.

Data set [3] relates to carboxyl esterase 1 (CES1). The note with it: in the liver; cited from earlier work.
Another data set concerns cytochrome P450 (CYP). The conditions noted are these: cited from earlier work.
Another data set relates to antiplatelet responses. The note with it: conventional doses of clopidogrel; cited from earlier work.
Setting [4] is: CPGS in rat plasma, clopidogrel 30 mg/kg intragastric, administered alone, 21 days.
Where [5] appears, read: CPGS in rat plasma, coadministration clopidogrel 30 mg/kg + FDDP 324 mg/kg intragastric, 21 days.
The mark [6] stands for this setting: CPGS in rat plasma, coadministration clopidogrel 30 mg/kg + FDDP 324 mg/kg intragastric, 21 days, P < 0.05 vs clopidogrel-only.
[7] abbreviates: combination vs clopidogrel alone, rats.
The mark [8] stands for this setting: combination vs clopidogrel-only group, rats.
[9] abbreviates: combination vs clopidogrel-only group, rats, not statistically significant.

By CL/F is commonly meant the apparent clearance, not corrected for the fraction that reaches the circulation. For `O=C(O)[C@H](c1ccccc1Cl)N1CCc2sccc2C1` [CPGS], in data set [1] (setting [4]), the “AUC (0–tn)” value is on record as 90.529 ± 18.557 mg/L∗h, the “AUC (0–∞)” value was found to be 104.965 ± 24.367 mg/L∗h, the CL/F turned out to be 5.15 ± 2.08 mL/min/kg and the Ka is reported as 6.807 ± 6.698. In data set [1] (setting [4]), the MAT is reported as 13.336 ± 2.566 h, the “MRT (0–tn)” value is reported as 7.453 ± 0.747 h, the “MRT (0–∞)” value was 11.359 ± 2.022 h and the T1/2β was 14.788 ± 14.311 h. In data set [1] (setting [4]), the T max was determined as 1.208 ± 0.332 h and the V/F was found to be 5.079 ± 2.153 L/kg. In addition, in data set [1] (setting [5]), the “AUC (0–tn)” value was found to be 70.314 ± 35.213 mg/L∗h, the “AUC (0–∞)” value turned out to be 76.324 ± 39.971 mg/L∗h, the C max was 10146 ± 4848 ng/mL and the CL/F came out at 7.58 ± 3.07 mL/min/kg. In data set [1] (setting [5]), the Ka stood at 2.519 ± 3.073, the “MRT (0–tn)” value came to 6.871 ± 0.741 h, the T1/2β is on record as 19.495 ± 18.931 h and the T max is on record as 1.583 ± 0.376 h. Besides, the V/F in data set [1] (setting [5]) is 9.987 ± 9.820 L/kg. Moreover, in data set [1] (setting [6]), the MAT worked out at 8.198 ± 3.556 h and the “MRT (0–∞)” value stood at 8.854 ± 1.873 h. In data set [1] (setting [7]), the “Change of area under the curve of CPGS by FDDP” value is “decreased” and the “Change of peak plasma concentration of CPGS by FDDP” value was “decreased”. Besides, in data set [1] (setting [8]), the “Change of MAT of CPGS in the combination group” value was “greater degrees of decline” and the “Change of MRT (0-∞) of CPGS in the combination group” value is recorded as “greater degrees of decline”. Moreover, in data set [1] (setting [9]), the “Change of CL/F of CPGS in the combination group” value was “slightly higher” and the “Change of T max of CPGS in the combination group” value is reported as “slightly higher”. Further, the “Pharmacokinetic model describing CPGS” value in data set [1] (rat plasma after clopidogrel alone or with FDDP) is reported as “two-compartment open model”. Besides, the “Stability in extracted plasma samples” value in data set [2] (24 h at room temperature) is “stable”. Further, the “Long-term stability of spiked plasma samples” value in data set [2] (stored at −20°C, 20 days) is “stable”.
Consider `COC(=O)[C@H](c1ccccc1Cl)N1CCc2sccc2C1` [clopidogrel], for which the “Share of absorbed parent drug transformed by CES1 into inactive carboxylic acid derivative (CPGS)” value in data set [3] is given as 85%. Further, the “Share of absorbed clopidogrel dose transformed by CYP into thiol metabolite” value in the data set on cytochrome P450 (CYP) is recorded as 15%. The “Patients displaying inadequate antiplatelet responses” value in the data set with antiplatelet responses is on record as 5–40%.
